From patent publication US7399823B1, “Antimicrobial theta defensins and methods of using same” (The Regents of the University of California, priority 2000, dated 2008)
Marks after values point to notes of the source that are not given here. Positions of bridges follow the written chain, without caps; N, C: chain ends. Residues, ends and D or L forms follow the SMILES beside them.

Columns and labels:
Format in all cases: cell-based
[1] = test system: Salmonella typhimurium, PhoP^−; assay: Microbicidal suspension assay, killing quantified by colony counts; settings: 2 hr, 10 mM PIPES, pH 7.4, 5 mM glucose; FIG. 9
[2] = test system: Staphylococcus aureus 502a; assay: as above; settings: for % killed: 37 C.
Procedure: Killing was quantified by colony counts.
Additional antimicrobial assays were conducted on other microbial organisms. […] In FIG. […] Killing was quantified by colony counts. […] The limit of detection (1 colony per plate) was equal to 1×10^3 colony forming units in the incubation mixture.
It has been proposed that salt sensitivity of airway defensins underlies the susceptibility of cystic fibrosis patients to pulmonary infections.
(§1) An acyclic version of theta defensin was also tested for antimicrobial activity. […] Killing activity was quantified by colony counts after 18 hrs.
(§2) The microbicidal activity in the presence of physiological salt concentrations was tested against various microorganisms in various buffers.

Listeria monocytogenes = assay: Agar diffusion assay; settings: 10, 30, 100 or 300 μg/ml; agar seeded with 1×10^6 colony forming units
From the text: (§3) Agar diffusion assays and microbicidal suspension assays were used to examine the activity of theta defensin against Staphylococcus aureus 502A, Escherichia coli ML35, Listeria monocytogenes, and Cryptococcus neoformans.

Cryptococcus neoformans = assay: Agar diffusion assay; settings: 10, 30, 100 or 300 μg/ml; agar seeded with 1×10^6 colony forming units
From the text: as §3

Candida albicans = assay: Microbicidal suspension assay, killing quantified by colony counts
[3] = test system: Cryptococcus neoformans 271a; assay: as above; settings: for % killed: RTD-1 10 mg/ml, 2 h, 37 C.
[4] = test system: Listeria monocytogenes EDG; assay: as above; settings: for % killed: RTD-1 10 mg/ml, 2 h, 37 C.
Escherichia coli ML35 [5] = assay: as above; settings: for % killed: 2 h, 37 C.
Procedure: Additional antimicrobial assays were conducted on other microbial organisms. […] In FIG. 9A, S. aureus 502a was incubated with increasing concentrations of natural or synthetic peptide for 30 min at 37° C. in 10 mM PIPES, pH 7.4, containing 5 mM glucose. Killing was quantified by colony counts. […] The limit of detection (1 colony per plate) was equal to 1×10^3 colony forming units in the incubation mixture.
as §1, §2

Escherichia coli ML35 [6] = assay: Agar diffusion assay
Procedure: (§4) The purified chromatographic peaks were screened for antibacterial activity against Escherichia coli ML35 and Staphylococcus aureus 502a. Briefly, antibacterial activity was screened with an agar diffusion assay using lyophilized samples of HPLC fractions dissolved in 5 μl of 0.01% acetic acid as described by Lehrer et al., J. Immunol. Methods 137:167-173 (1991)).
as §3

[7] = test system: Staphylococcus aureus 502a; assay: Agar diffusion assay
Procedure: as §4, §3

[8] = 2 hr, 10 mM PIPES, pH 7.4, 5 mM glucose, FIG. 9
[9] = 10 mM PIPES, pH 7.4, 5 mM glucose, 150 mM NaCl
[10] = 10, 30, 100 or 300 μg/ml, agar seeded with 1×10^6 colony forming units

CC[C@H](C)[C@@H]1NC(=O)[C@@H]2CSSC[C@H](NC(=O)[C@H](CCCNC(=N)N)NC(=O)[C@@H]3CSSC[C@H](NC1=O)C(=O)N[C@@H]([C@@H](C)O)C(=O)N[C@@H](CCCNC(=N)N)C(=O)NCC(=O)N[C@@H](Cc1ccccc1)C(=O)N3)C(=O)N[C@@H](CC(C)C)C(=O)N[C@H]1CSSC[C@H](NC(=O)[C@H](C(C)C)NC(=O)CNC(=O)[C@H](CCCNC(=N)N)NC(=O)[C@H](CCCNC(=N)N)NC1=O)C(=O)N[C@@H](CCCNC(=N)N)C(=O)N2 [RTD-1] (cyclo(GFCRCLCRRGVCRCICTR); disulfide 3-16, 5-14, 7-12)
microbicidal activity (killing) [1]: killed | effect of NaCl on staphylocidal activity ([2]; 10 μg/ml peptide, 2 h, NaCl concentrations as high as 150 mM): little effect | microbicidal activity (killing) ([2]; 10 mM PIPES, pH 7.4, 5 mM glucose, 37° C., FIG. 9): killed | % killed ([2]; 2 h, 10 mM PIPES, pH 7.4, 5 mM glucose, 150 mM NaCl, 1-2 × 10^6 CFU/ml): >99% | % killed ([2]; 2 h, 10 mM Tris-HCl, pH 7.4, 150 mM NaCl): >99.99% | peptide concentration reducing colony counts to below the level of detection ([2]; 2 h at 37° C. in 10 mM PIPES, pH 7.4): ≥ 4 µg/mL | % killed ([2]; RTD-1 25 mg/ml, 2 h, 10 mM Tris-HCl, pH 7.4, 50% human AB serum): >99* % | zone of inhibition (Listeria monocytogenes): dose dependent increase | zone of inhibition (Cryptococcus neoformans): dose dependent increase | microbicidal activity (killing) (Candida albicans; [8]): killed | % killed (Candida albicans; RTD-1 10 mg/ml, 2 h, 37 C., 10 mM Tris HCl, pH 7.4, 150 mM NaCl): >98% | microbicidal activity (killing) [3, 8]: killed | % killed [3, 9]: >99.99% | % killed ([3]; 10 mM Tris-HCl, pH 7.4, 150 mM NaCl): >99.99% | microbicidal activity (killing) [4, 8]: killed | % killed [4, 9]: >99.99% | % killed ([4]; 10 mM Tris HCl, pH 7.4, 150 mM NaCl): >99.99% | microbicidal activity (killing) (Escherichia coli ML35 [5]; [8]): killed | % killed (Escherichia coli ML35 [5]; RTD-1 25 mg/ml, 10 mM Tris-HCl, pH 7.4, 25% human AB serum): >99* % | % killed (Escherichia coli ML35 [5]; RTD-1, 10 mM PIPES, pH 7.4, 5 mM glucose, 150 mM NaCl): >99% | % killed (Escherichia coli ML35 [5]; RTD-1, 10 mM Tris-HCl, pH 7.4, 150 mM NaCl): >99.99% | activity of cyclic form relative to acyclic form (Escherichia coli ML35 [5]; gram negative bacteria (E. coli)): about three times more active | zone of inhibition (Escherichia coli ML35 [6]; [10]): dose dependent increase | antibacterial activity compared with the other leukocyte peptides isolated (Escherichia coli ML35 [6]; screen of purified HPLC peaks): greatest activity | zone of inhibition [7, 10]: dose dependent increase | antibacterial activity compared with the other leukocyte peptides isolated ([7]; screen of purified HPLC peaks): greatest activity
